Data published in ChEMBL document CHEMBL1201862, “PubChem BioAssay data set” (2004).
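96-well plates; 48 h exposure; 5 concentrations. Endpoints by linear interpolation between flanking doses. Not reached: highest tested concentration assigned. Abbreviation: GI50, concentration required for 50% inhibition of growth.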 The source made the active and inactive calls. Rule as the data show it: active = GI50 up to about 1.1 µM and inactive = higher.

Experiments:
Assay in all cases: NCI-60 cell line screen, 48 h
[1] = tested on: A549
[2] = tested on: Hs-578T
[3] = tested on: MDA-N
[4] = tested on: KM12
[5] = tested on: UACC-62
[6] = tested on: A498
[7] = tested on: NCI-H522
[8] = tested on: MDA-MB-435
[9] = tested on: HCT-116
[10] = tested on: SK-MEL-5
[11] = tested on: SK-OV-3
[12] = tested on: DMS-114
[13] = tested on: TK-10
[14] = tested on: HOP-62
[15] = tested on: SNB-78
[16] = tested on: HCC 2998
[17] = tested on: MCF7
[18] = tested on: SF-268
[19] = tested on: HCT-15
[20] = tested on: 786-0
[21] = tested on: DMS-273
[22] = tested on: IGROV-1
[23] = tested on: OVCAR-5
[24] = tested on: SK-MEL-2
[25] = tested on: BT-549
[26] = tested on: NCI-H460
[27] = tested on: ACHN
[28] = tested on: SN12C
[29] = tested on: NCI-H226
[30] = tested on: MOLT-4
[31] = tested on: HOP-18
[32] = tested on: NCI-H23
[33] = tested on: UACC-257
[34] = tested on: M19-MEL
[35] = tested on: SK-MEL-28
[36] = tested on: K562
[37] = tested on: CAKI-1
[38] = tested on: DLD-1
[39] = tested on: CCRF-CEM
[40] = tested on: RXF 393
[41] = tested on: EKVX
[42] = tested on: T47D
[43] = tested on: COLO 205
[44] = tested on: HL-60
[45] = tested on: SF-539
[46] = tested on: UO-31
[47] = tested on: SNB-75
[48] = tested on: RPMI-8226
[49] = tested on: DU-145
[50] = tested on: M14
[51] = tested on: Malme-3M
[52] = tested on: SF-295
[53] = tested on: SNB-19
[54] = tested on: OVCAR-3
[55] = tested on: LOX IMVI
[56] = tested on: OVCAR-4
[57] = tested on: PC-3
[58] = tested on: OVCAR-8
[59] = tested on: SW-620
[60] = tested on: XF498
[61] = tested on: U-251
[62] = tested on: HT-29
[63] = tested on: NCI/ADR-RES
[64] = tested on: SR
[65] = tested on: KM-20L2
[66] = tested on: HOP-92
[67] = tested on: MDA-MB-231
[68] = tested on: LXFL 529

Measured: GI50

Nc1nncs1
853 µM: [19]
inactive: [1] 942 µM | [2] 1620 µM | [3] 1950 µM | [4] 1940 µM | [5] 1910 µM | [6] 867 µM | [7] 1210 µM | [8] 1630 µM | [9] 1500 µM | [10] 2360 µM | [11] 151 µM | [12] 1960 µM | [13] > 5000 µM | [14] 724 µM | [15] 3240 µM | [16] 2160 µM | [17] 2480 µM | [18] 3950 µM | [20] 4080 µM | [21] 450 µM | [22] 2580 µM | [23] 1870 µM | [24] > 5000 µM | [25] 1940 µM | [26] 692 µM | [27] 1520 µM | [28] 3040 µM | [29] 3480 µM | [30] 695 µM | [31] 3030 µM | [32] 1640 µM | [33] 705 µM | [34] 1090 µM | [35] 1980 µM | [36] 1320 µM | [37] 1760 µM | [38] 641 µM | [39] 1010 µM | [40] 2930 µM | [41] 1320 µM | [42] > 3040 µM | [43] 456 µM | [44] 2080 µM | [45] 3560 µM | [46] 3530 µM | [47] 1440 µM | [48] 991 µM | [49] 2070 µM | [50] 1580 µM | [51] 3590 µM | [52] 2760 µM | [53] 3730 µM | [54] 2400 µM | [55] 1450 µM | [56] 853 µM | [57] 2610 µM | [58] 1910 µM | [59] 1260 µM | [60] 879 µM | [61] 3100 µM | [62] 211 µM | [63] 1510 µM | [64] 2000 µM | [65] 301 µM | [66] 2260 µM | [67] 2320 µM

CCCCCC(O)C1C(=O)OC(C)C(O)/C=C/C=C/C=C/C=C/C=C(\C)C(O)C(O)C(O)CC(O)CC(O)CC(O)CC(O)CC1O (stereo unspecified)
inactive: [2] > 100 µM | [3] > 100 µM | [7] 1.73 µM | [8] > 100 µM | [12] 1.53 µM | [13] > 100 µM | [15] 1.88 µM | [16] 1.76 µM | [20] > 100 µM | [21] 1.34 µM | [25] > 100 µM | [26] 1.56 µM | [27] > 100 µM | [31] 2.48 µM | [34] 1.24 µM | [38] 1.6 µM | [40] 1.41 µM | [42] > 100 µM | [44] > 100 µM | [46] 1.79 µM | [49] > 100 µM | [50] > 100 µM | [56] 1.82 µM | [57] > 100 µM | [60] 1.49 µM | [63] 1.51 µM | [64] > 100 µM | [65] 2.28 µM | [66] 1.71 µM | [67] > 100 µM
2.42 µM: [19]

NCCCCCCNCc1cccc2ccccc12
inactive: [1] > 100 µM | [4] 99.8 µM | [5] > 100 µM | [7] 83.6 µM | [9] 95.1 µM | [10] 90.8 µM | [11] > 100 µM | [12] > 100 µM | [13] > 100 µM | [14] > 100 µM | [15] > 100 µM | [20] > 100 µM | [22] > 100 µM | [23] > 100 µM | [24] 41.3 µM | [26] > 100 µM | [27] > 100 µM | [28] > 100 µM | [29] > 100 µM | [30] 40.8 µM | [31] 24.2 µM | [32] > 100 µM | [33] 46.3 µM | [34] > 100 µM | [35] 65.2 µM | [36] 19.8 µM | [37] > 100 µM | [38] > 100 µM | [39] > 10 µM | [40] 57 µM | [41] > 100 µM | [43] 29.9 µM | [44] 54.2 µM | [45] 40.6 µM | [46] 53.5 µM | [47] > 100 µM | [48] > 100 µM | [50] 18.4 µM | [51] 19.1 µM | [52] > 100 µM | [53] > 100 µM | [54] > 100 µM | [55] 41 µM | [68] > 100 µM | [56] > 100 µM | [58] > 100 µM | [59] 85.5 µM | [60] 44.2 µM | [61] > 100 µM | [62] 38.3 µM | [64] 45.3 µM | [65] 58.3 µM
74.6 µM: [19]
